Data taken from patent US5453426A, “Sulfur-containing xanthine derivatives as adenosine antagonists” (priority 1994, dated 1995).
Where two headings read alike, the source gives them in different places.

Columns and labels:
A2 adenosine receptors [1] = molecular target: T1, A2 adenosine receptors (Rattus norvegicus, UniProt P30543); test: Inhibition of binding of [3H]N-ethylcarboxamidoadenosine to A2-adenosine receptors in rat striatal membranes; conditions: for A2 affinity/potency, in words: relative to the analogs named in the text
T1 sequence (P30543 whole entry): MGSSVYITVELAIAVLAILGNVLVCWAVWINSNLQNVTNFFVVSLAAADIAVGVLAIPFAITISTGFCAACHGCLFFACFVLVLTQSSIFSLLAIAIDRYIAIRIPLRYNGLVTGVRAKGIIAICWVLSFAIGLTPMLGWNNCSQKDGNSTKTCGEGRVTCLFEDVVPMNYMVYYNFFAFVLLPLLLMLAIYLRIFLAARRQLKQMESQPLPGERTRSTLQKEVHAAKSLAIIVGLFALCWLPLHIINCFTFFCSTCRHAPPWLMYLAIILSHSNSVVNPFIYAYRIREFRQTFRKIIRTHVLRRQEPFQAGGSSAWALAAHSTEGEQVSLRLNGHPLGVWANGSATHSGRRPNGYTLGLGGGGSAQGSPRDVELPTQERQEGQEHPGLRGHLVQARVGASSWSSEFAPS
Experimental: Affinity at A1 - and A2 -adenosine receptors was measured in competitive binding assays, using as radioligands [^3 H]N^6 -phenylisopropyladenosine^17 (with rat cerebral cortical membranes) and [^3 H]5'-N-ethylcarboxamidoadenosine (with rat striatal membranes),^18 respectively.
N^6 -Cyclopentyladenosine was present at 50 nM to inhibit binding of the ligand at A1 -adenosine receptors. Inhibition of binding by a range of concentrations of xanthines was assessed in triplicate in at least three separate experiments. IC50 -values were converted to Ki-values by the method of Bruns et al,^18 using a conversion factor derived from the affinity of [^3 H]N-ethylcarboxamidoadenosine at A2 receptors and the Cheng-Prusoff equation.^19

A1 adenosine receptors = molecular target: T2, A1 adenosine receptors (Rattus norvegicus, UniProt P25099); test: Inhibition of binding of [3H]N6-phenylisopropyladenosine to A1 adenosine receptors in rat cerebral cortical membranes; conditions: for fold less potent at A1-receptors: 6-thio analog versus oxygen analog (CPX or DPX, 24); for Ki (A2)/Ki (A1): ratio of A2 (rat striatum) to A1 (rat cortex) Ki; for A1 affinity/potency, in words: relative to the analogs named in the text
T2 construct: A1 adenosine receptors in rat cerebral cortical membranes; from tissue; host or cells: rat cerebral cortex membranes
T2 sequence (P25099 1-326): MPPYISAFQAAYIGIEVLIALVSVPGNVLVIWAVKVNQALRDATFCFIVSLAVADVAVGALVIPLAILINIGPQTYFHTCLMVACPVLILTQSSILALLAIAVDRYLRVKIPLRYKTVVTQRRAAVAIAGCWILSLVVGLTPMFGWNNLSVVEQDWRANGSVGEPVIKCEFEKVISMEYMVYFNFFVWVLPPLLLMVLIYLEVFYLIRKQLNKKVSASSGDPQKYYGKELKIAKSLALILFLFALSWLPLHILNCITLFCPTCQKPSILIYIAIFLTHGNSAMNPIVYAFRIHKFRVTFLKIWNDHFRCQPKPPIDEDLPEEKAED

A1 -adenosine receptors [2] = conditions: background; cited from earlier work
cardiac depression = conditions: background, ref 9b; cited from earlier work
tracheal relaxation = conditions: background, ref 9a, cited from earlier work; for cardiac or behavioral stimulation: accompanying tracheal relaxation
A2 adenosine receptors [3] = molecular target: T1, A2 adenosine receptors; parameters: A2 -adenosine receptors in rat striatal membranes; from tissue; host or cells: rat striatum membranes; conditions: cited from earlier work
A1 -adenosine receptors [4] = conditions: ref 10a; cited from earlier work
[5] = rat cortical membranes, [3H]PIA, single determination in triplicate or average of three ± S.E.M., read-out: Ki A1-receptors
[6] = read-out: Ki A2-receptors, rat striatal membranes, [3H]NECA, single determination in triplicate or average of three ± S.E.M.
[7] = values taken from Bruns et al. (ref 18)

Ki (A2 adenosine receptors [1]) [nM] | Ki (A1 adenosine receptors; [5]) [nM] | Ki (A2)/Ki (A1) (A1 adenosine receptors) | SMILES | further results
3360 | 15.5 ± 1.5 | 217 | CCCn1c(=S)c2[nH]c(C3CCCC3)nc2n(CCC)c1=O [Compound 55, 8-cyclopentyl-1,3-dipropyl-6-thioxanthine] | fold less potent at A1-receptors (A1 adenosine receptors): 17 fold
8980 | 202 ± 26 | 44.4 | Cn1c(=S)c2[nH]c(C3CCCC3)nc2n(C)c1=O [Compound 54] | –
2780 | 4.87 ± 0.82 | 572 | CCCn1c(=S)c2[nH]c(C3CCCC3)nc2n(CCC)c1=S [Compound 53] | A2 affinity/potency, in words (A2 adenosine receptors [1]): intermediate in potency between the corresponding 2-thio and 6-thio analogs; A1 affinity/potency, in words (A1 adenosine receptors): intermediate in potency between the corresponding 2-thio and 6-thio analogs
314 ± 62 | 0.655 ± 0.058 | 479 | CCCn1c(=O)c2[nH]c(C3CCCC3)nc2n(CCC)c1=S [Compound 14] | A1-selectivity, in words (A1 adenosine receptors; A1 versus A2 binding, relative to oxygen analogs): a greater margin of A1 -selectivity; A1 affinity/potency, in words (A1 adenosine receptors): the A1 affinity was enhanced by the thio substitution
– | – | – | CCCn1c(=O)c2[nH]c(C3CCCC3)nc2n(CCC)c1=O [Compound 2b, 8-cyclopentyl-1,3-dipropylxanthine] | potency in binding at A1-adenosine receptors versus theophylline (A1 -adenosine receptors [2]): more than four orders of magnitude more potent than theophylline
1630 | 233 ± 48.6 | 6.97 | Cn1c(=O)c2[nH]c(-c3cccs3)nc2n(C)c1=O [Compound 17] | –
– | – | – | Cn1c(=S)c2[nH]cnc2n(C)c1=O [6-thiotheophylline] | cardiac effect (cardiac depression): cause cardiac depression rather than stimulation; cardiac or behavioral stimulation (tracheal relaxation): without cardiac or behavioral stimulation; tracheal relaxation (tracheal relaxation): induce tracheal relaxation
121 ± 18.2 | 10 ± 0.03 | 12.1 | CCCn1c(=O)c2[nH]c(-c3ccsc3)nc2n(CCC)c1=O [Compound 20] | A2 affinity/potency, in words (A2 adenosine receptors [1]): Preference for 3-thienyl derivatives was evident particularly at the A2 -subtype
– | 221 ± 43.3 | 7.87 | Cn1c(=O)c2nc(-c3cccs3)[nH]c2n(C)c1=S [Compound 21] | Ki (A2 adenosine receptors [1]; [6]): 1740 nM
3510 | 1010 | 3.47 | CCn1c(=S)c2[nH]c(-c3ccccc3)nc2n(CC)c1=O [Compound 57] | fold less potent at A2-receptors (A2 adenosine receptors [1]; 6-thio analog 57 versus DPX, 24): 12 fold; fold less potent at A1-receptors (A1 adenosine receptors): 23 fold
191 ± 13 | – | 30 | CCCn1c(=O)c2[nH]c(-c3ccc(OCC(=O)NCCNC(=O)[C@H](N)CCCCNC(=O)OCc4ccccc4)cc3)nc2n(CCC)c1=O [Compound 40] | –
27.9 ± 7.5 | 2.55 ± 0.6 | 11 | CCCn1c(=O)c2[nH]c(-c3ccc(OCC(=O)NCCN(C)C)cc3)nc2n(CCC)c1=S [Compound 35] | –
– | 7.44 ± 0.98 | 85 | CCCn1c(=O)c2[nH]c(-c3ccc(OCC(=O)NCCNC(=O)CCCCCCC(=O)NCc4cccs4)cc3)nc2n(CCC)c1=O [Compound 49] | Ki (A2 adenosine receptors [1]; [6]): 630 ± 160 nM
870 | – | 10 | CCCn1c(=O)c2[nH]c(-c3ccc(OCC(=O)NCCNC(=O)[C@@H](CCCCNC(=O)OCc4ccccc4)NC(=O)OC(C)(C)C)cc3)nc2n(CCC)c1=S [Compound 39] | –
– | – | – | CCCn1c(=O)c2nc(-c3ccc(OCC(=O)NCCNC(=O)CCCCCCC(=O)ON4C(=O)CCC4=O)cc3)[nH]c2n(CCC)c1=S [Compound 45, N-Succinimidyl 8-[2-[4-(6-Carboxy-n-hexyl)carbonylaminoethyl[amino[carbonyl[methyloxyphenyl]]]]]-1,3-dipropyl-2-thioxanthine] | Ki (A1 adenosine receptors): 33.5 nM
147 ± 5 | 18.3 ± 3 | 8.1 | CCCn1c(=O)c2[nH]c(-c3ccc(OCC(=O)NCCNC(=O)Cc4cccs4)cc3)nc2n(CCC)c1=O [Compound 46] | –
11300 | 1380 | 8.18 | Cn1c(=S)c2[nH]c(-c3ccccc3)nc2n(C)c1=O [Compound 56] | –
– | – | 13.6 | Cn1c(=O)c2nc(-c3ccoc3)[nH]c2n(C)c1=O [Compound 16, reference compound] | Ki (A2 adenosine receptors [3]; [7]): 984 ± 70 nM
11500 | 40.5 ± 6.6 | 285 | Cn1c(=S)c2[nH]c(C3CCCC3)nc2n(C)c1=S [Compound 52] | –

Ki (A2 adenosine receptors [1]) [nM] | Ki (A1 adenosine receptors; [5]) [nM] | Ki (A2)/Ki (A1) (A1 adenosine receptors) | SMILES | further results
– | 58 ± 3 | 37.8 | CCCn1c(=O)c2[nH]c(-c3ccc(OCC(=O)O)cc3)nc2n(CCC)c1=O [Compound 27] | Ki (A2 adenosine receptors [1]; [6]): 2200 nM
5.03 ± 0.54 | – | 1.8 | CCCn1c(=O)c2[nH]c(-c3ccc(OCC(=O)NCCN(C)C)cc3)nc2n(CCC)c1=O [Compound 34] | –
322 ± 17 | – | 36 | CCCn1c(=O)c2[nH]c(-c3ccc(OCC(=O)NCCNC(=O)[C@H](N)CCCCNC(=O)OCc4ccccc4)cc3)nc2n(CCC)c1=S [Compound 41] | –
26.3 ± 1.76 | 2.69 ± 0.77 | 9.8 | CCCn1c(=O)c2[nH]c(-c3ccc(OCC(=O)NCCN)cc3)nc2n(CCC)c1=S [Compound 31] | A2 affinity/potency, in words (A2 adenosine receptors [1]): enhanced over the oxygen analog; A1 affinity/potency, in words (A1 adenosine receptors): with less affinity at A1 -receptors than the corresponding oxygen analog
841 ± 109 | 152 ± 27 | 5.53 | Cn1c(=O)c2[nH]c(-c3ccsc3)nc2n(C)c1=O [Compound 18] | A2 affinity/potency, in words (A2 adenosine receptors [1]): Preference for 3-thienyl derivatives was evident particularly at the A2 -subtype
116 ± 25 | 11.3 ± 1.5 | 10.3 | CCCn1c(=O)c2[nH]c(-c3ccc(OCC(=O)NCCNC(=O)Cc4ccc(I)s4)cc3)nc2n(CCC)c1=O [Compound 48] | –
– | 0.87 ± 0.09 | 210 | CCCn1c(=O)c2[nH]c(-c3ccc(OCC(=O)NCCNC(=O)[C@H](N)CCCCN)cc3)nc2n(CCC)c1=O [Compound 42] | Ki (A2 adenosine receptors [1]; [6]): 180 nM
– | – | – | Cn1c(=S)c2c(ncn2C)n(C)c1=O [6-thiocaffeine] | cardiac effect (cardiac depression): cause cardiac depression rather than stimulation; cardiac or behavioral stimulation (tracheal relaxation): without cardiac or behavioral stimulation; tracheal relaxation (tracheal relaxation): induce tracheal relaxation
– | – | 7.94 | Cn1c(=O)c2[nH]c(-c3ccco3)nc2n(C)c1=O [Compound 15, reference compound] | Ki (A2 adenosine receptors [3]; [7]): 2780 nM
1390 | 8 | 170 | Cn1c(=O)c2[nH]c(C3CCCC3)nc2n(C)c1=S [Compound 13] | –
– | – | 56 | CCCn1c(=O)c2[nH]c(-c3ccc(OCC(=O)NCCNC(=O)CCCCCCC(=O)ON4C(=O)CCC4=O)cc3)nc2n(CCC)c1=O [Compound 44] | Ki (A2 adenosine receptors [3]; values taken from Jacobson et al. (ref 10)): 207 ± 57 nM; irreversible inhibitor of A1-adenosine receptors at concentrations (A1 -adenosine receptors [4]): greater than 50 nM
> 10000 | 42 ± 3 | > 238 | CCCn1c(=O)c2[nH]c(-c3ccc(OCC(=O)OCC)cc3)nc2n(CCC)c1=O [Compound 29] | –
46.8 ± 9.4 | – | 3.6 | CCCn1c(=O)c2[nH]c(-c3ccc(OCC(=O)NCCNC(=O)[C@H](N)CCCCN)cc3)nc2n(CCC)c1=S [Compound 43] | –
> 5000 | 6.78 ± 0.64 | > 740 | CCCn1c(=O)c2[nH]c(-c3ccc(OCC(=O)OCC)cc3)nc2n(CCC)c1=S [Compound 30] | –
– | – | – | CCCn1c(=O)c2[nH]c(-c3ccc(OCC(=O)NCCN)cc3)nc2n(CCC)c1=O [Compound 3, 8-(4-(2-amino-ethylaminocarbonylmethyloxy)phenyl)-1,3-dipropylxanthine] | potency in binding at A1-adenosine receptors versus theophylline (A1 -adenosine receptors [2]): more than four orders of magnitude more potent than theophylline
381 ± 27.7 | 16.1 ± 1.96 | 23.6 | CCCn1c(=O)c2[nH]c(-c3cccs3)nc2n(CCC)c1=O [Compound 19] | –
315 ± 60.8 | 53.8 ± 7.1 | 5.86 | CCCn1c(=O)c2[nH]c(-c3ccc(OCC(=O)O)cc3)nc2n(CCC)c1=S [Compound 28, 8-(4-(carboxymethyloxy)phenyl)-1,3-dipropyl-2-thioxanthine] | enhancement of potency at A2-receptors by the 2-thio substitution (A2 adenosine receptors [1]; 28 versus oxygen analog 27): 7 fold
– | 2.4 ± 0.28 | – | CCCn1c(=O)c2[nH]c(-c3ccc(OCC(=O)NCCNC)cc3)nc2n(CCC)c1=S [Compound 33] | –

SMILES | Ki (A2 adenosine receptors [1]) [nM] | Ki (A1 adenosine receptors; [5]) [nM] | Ki (A2)/Ki (A1) (A1 adenosine receptors) | further results
CCCn1c(=O)c2[nH]c(-c3ccc(OCC(=O)N(C)CCN(C)C)cc3)nc2n(CCC)c1=S [Compound 37, (8-[2-Dimethylaminoethyl[N-methylamino[carbonyl[methyl[oxyphenyl]]]]]-2-thio-1,3-dipropylxanthine)] | 24.5 ± 8.4 | 2.57 ± 0.67 | – | –
